From ChEMBL document CHEMBL1201862, “PubChem BioAssay data set” (2004)
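All cell lines were grown in 96-well plates and treated with compound for 48 hours. GI50 marks 50% less growth.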 Activity calls are given as the source filed them. Rule as the data show it: active = GI50 up to about 1.1 µM and inactive = higher.

What was measured:
Assay in all cases: DTP human tumour cell line panel, 48 h
SF-295 = tested on: SF-295
MCF7 = tested on: MCF7
A549 = tested on: A549
UACC-257 = tested on: UACC-257
UO-31 = tested on: UO-31
M14 = tested on: M14
SN12C = tested on: SN12C
CCRF-CEM = tested on: CCRF-CEM
SF-539 = tested on: SF-539
LOX IMVI = tested on: LOX IMVI
ACHN = tested on: ACHN
T47D = tested on: T47D
OVCAR-5 = tested on: OVCAR-5
RXF 393 = tested on: RXF 393
MDA-MB-231 = tested on: MDA-MB-231
DU-145 = tested on: DU-145
OVCAR-3 = tested on: OVCAR-3
SK-MEL-28 = tested on: SK-MEL-28
HOP-62 = tested on: HOP-62
NCI-H226 = tested on: NCI-H226

Compound | GI50 (SF-295) | GI50 (MCF7) | GI50 (A549) | GI50 (UACC-257) | GI50 (UO-31) | GI50 (M14) | GI50 (SN12C) | GI50 (CCRF-CEM) | GI50 (SF-539) | GI50 (LOX IMVI) | GI50 (ACHN) | GI50 (T47D) | GI50 (OVCAR-5) | GI50 (RXF 393) | GI50 (MDA-MB-231) | GI50 (DU-145) | GI50 (OVCAR-3) | GI50 (SK-MEL-28) | GI50 (HOP-62) | GI50 (NCI-H226)
Cc1cc(OCc2nnc3n2S(=O)(=O)c2ccccc2N3C)ccc1Cl | 18.8 µM (inactive) | 89.7 µM (inactive) | 44.9 µM (inactive) | 61 µM (inactive) | 58.3 µM (inactive) | > 100 µM (inactive) | 32.4 µM (inactive) | 15.7 µM (inactive) | 16.7 µM (inactive) | 33.7 µM (inactive) | 19.9 µM (inactive) | 18.5 µM (inactive) | > 100 µM (inactive) | 21.2 µM (inactive) | 16.3 µM (inactive) | 56 µM (inactive) | 19.5 µM (inactive) | 86.5 µM (inactive) | 14.1 µM (inactive) | 31.2 µM (inactive)
COc1cc2c(cc1O)NC(=O)[C@@H]1CCCN1C2=O | > 100 µM (inactive) | > 100 µM (inactive) | > 100 µM (inactive) | > 100 µM (inactive) | > 100 µM (inactive) | > 100 µM (inactive) | > 100 µM (inactive) | > 100 µM (inactive) | > 100 µM (inactive) | > 100 µM (inactive) | > 100 µM (inactive) | > 100 µM (inactive) | > 100 µM (inactive) | > 100 µM (inactive) | > 100 µM (inactive) | > 100 µM (inactive) | > 100 µM (inactive) | > 100 µM (inactive) | > 100 µM (inactive) | > 100 µM (inactive)
COc1cc(/C=C2/SC(c3ccccc3)N(c3ccccc3Cl)C2=O)cc(OC)c1OC (stereo not given) | 32.1 µM (inactive) | 35.9 µM (inactive) | 36.3 µM (inactive) | 42.2 µM (inactive) | 35.4 µM (inactive) | 30.1 µM (inactive) | 23.7 µM (inactive) | 12.2 µM (inactive) | 19.7 µM (inactive) | 17.6 µM (inactive) | 58.1 µM (inactive) | 29.2 µM (inactive) | 69.5 µM (inactive) | 20.7 µM (inactive) | 58.3 µM (inactive) | 45 µM (inactive) | 27.9 µM (inactive) | 30.5 µM (inactive) | 33.6 µM (inactive) | 30.1 µM (inactive)
CC(C)=CCC[C@@H](C)c1c2nc3ccccc3[nH]c-2c(C)c(=O)c1O | 0.946 µM (active) | 2.18 µM (inactive) | 2.37 µM (inactive) | 2.37 µM (inactive) | 0.714 µM (active) | 1.44 µM (inactive) | 1.24 µM (inactive) | 0.27 µM (active) | 2.08 µM (inactive) | 1.75 µM (inactive) | 0.568 µM (active) | 1.91 µM (inactive) | 3.52 µM (inactive) | 1.14 µM (inactive) | 1.73 µM (inactive) | 1.61 µM (inactive) | 0.363 µM (active) | 4.38 µM (inactive) | 1.19 µM (inactive) | 1.4 µM (inactive)
CN(C)CCCc1cccc2[nH]c3c(c12)CN(C)CC3 | > 100 µM (inactive) | > 100 µM (inactive) | > 100 µM (inactive) | 80 µM (inactive) | > 100 µM (inactive) | 17.3 µM (inactive) | > 100 µM (inactive) | 63.2 µM (inactive) | 28.8 µM (inactive) | 30.1 µM (inactive) | > 100 µM (inactive) | > 100 µM (inactive) | > 100 µM (inactive) | 19.7 µM (inactive) | 17.8 µM (inactive) | > 100 µM (inactive) | > 100 µM (inactive) | > 100 µM (inactive) | 56.5 µM (inactive) | > 100 µM (inactive)
O=C1/C(=C/c2ccc(Cl)cc2)CSC/C1=C\c1ccc(Cl)cc1 | 1.71 µM (inactive) | 2.72 µM (inactive) | 4.08 µM (inactive) | 1.99 µM (inactive) | 1.92 µM (inactive) | 1.84 µM (inactive) | 3.39 µM (inactive) | 2.68 µM (inactive) | 2.76 µM (inactive) | 1.91 µM (inactive) | 3.8 µM (inactive) | 6.89 µM (inactive) | 2.19 µM (inactive) | 1.35 µM (inactive) | 4.17 µM (inactive) | 5.87 µM (inactive) | 2.93 µM (inactive) | 1.87 µM (inactive) | 4.74 µM (inactive) | 2.2 µM (inactive)
c1ccc2c(Cc3[nH]c4ccccc4c3Cc3c[nH]c4ccccc34)c[nH]c2c1 | 4.3 µM (inactive) | 11.2 µM (inactive) | 3.1 µM (inactive) | 2.71 µM (inactive) | 3.35 µM (inactive) | 2.36 µM (inactive) | 1.77 µM (inactive) | 2.16 µM (inactive) | 2.56 µM (inactive) | 2.19 µM (inactive) | 14.5 µM (inactive) | 2.93 µM (inactive) | 2.85 µM (inactive) | 1.94 µM (inactive) | 2.12 µM (inactive) | 1.8 µM (inactive) | 3.16 µM (inactive) | 6.21 µM (inactive) | 3.38 µM (inactive) | 6.08 µM (inactive)
COC1C=COC2(C)Oc3c(C)c(O)c4c(O)c(c(C5SCCS5)c(O)c4c3C2=O)NC(=O)/C(C)=C\C=CC(C)C(O)C(C)C(O)C(C)C(OC(C)=O)C1C (stereo not given) | 4.74 µM (inactive) | 4.24 µM (inactive) | 6.79 µM (inactive) | 4.7 µM (inactive) | 12.1 µM (inactive) | 6.19 µM (inactive) | 2.55 µM (inactive) | 2.26 µM (inactive) | 8.15 µM (inactive) | 2.18 µM (inactive) | 3.01 µM (inactive) | 3.1 µM (inactive) | 12.7 µM (inactive) | 6.05 µM (inactive) | 5.71 µM (inactive) | 1.29 µM (inactive) | 4.99 µM (inactive) | 6.56 µM (inactive) | 10.9 µM (inactive) | 9.04 µM (inactive)
COC(=O)c1c2c(cc3c1CC1(Cc4ccccc4C1=O)C3)CCC2 (stereo not given) | 55.6 µM (inactive) | 43.8 µM (inactive) | 20.7 µM (inactive) | 43.3 µM (inactive) | 13.9 µM (inactive) | 31.3 µM (inactive) | 25.7 µM (inactive) | 28.2 µM (inactive) | 71.1 µM (inactive) | 31 µM (inactive) | 23.9 µM (inactive) | 52.7 µM (inactive) | > 100 µM (inactive) | 19.5 µM (inactive) | 21.4 µM (inactive) | > 100 µM (inactive) | 19.5 µM (inactive) | 93.3 µM (inactive) | 42.8 µM (inactive) | 2.58 µM (inactive)
